Results reported in publication PMC8036409 (Molecules, 2021).
Structures can show the parent of a compound that is named as a salt. Where two headings read alike, the source gives them in different places.

Tests used:
[1] = DPPH free radical scavenging assay; details: for DPPH Percent Inhibition (Mean ± S.E.M): n = 3
Description: (§1) The free radical scavenging capacity of the isolated compounds was determined using DPPH and ABTS assays. To prepare the DPPH stock solution, 30 mg of DPPH was dissolved in 100 mL of methanol. Likewise, to prepare ABTS stock solution, 383 mg of 7 mM ABTS and 66.2 mg of 2.45 mM K2S2O8 were taken, each of them was individually dissolved in 100 mL of methanol and mixed together thoroughly. For the free radical development, the solutions were kept in dark for one day. Different dilutions (62.5, 125, 250, 500, 1000 μg/mL) from each of the sample stock solutions (5 mg/5 mL of methanol) were prepared. Each of the dilutions (0.8 mL) was mixed with 0.8 mL of DPPH stock solution and incubated for 15 min and their absorbance was recorded at 515 nm. Likewise, 0.8 mL of each of the same dilutions was mixed with 2 mL of ABTS solution, incubated for 25 min and their absorbance was recorded at 745 nm. The percent scavenging potentials of compounds were calculated using the following equation:(1) Percent scavenging= A−B/A × 100, where A is the absorbance of oxidized stock (DPPH/ABTS) used as control, and B is the absorbance of the sample.

[2] = ABTS free radical scavenging assay; details: for ABTS Percent Inhibition (Mean ± S.E.M): n = 3
Description: as §1

[3] = target: T1, acetylcholinesterase (AChE) (Homo sapiens, UniProt P22303); assay: biochemical; details: for inhibition at 125 µg/mL / inhibition at 250 µg/mL / inhibition at 500 µg/mL / inhibition at 1000 µg/mL: read-out: Percent AChE (Mean ± SEM), %inhibition
T1 sequence (P22303 32-614, species assumed): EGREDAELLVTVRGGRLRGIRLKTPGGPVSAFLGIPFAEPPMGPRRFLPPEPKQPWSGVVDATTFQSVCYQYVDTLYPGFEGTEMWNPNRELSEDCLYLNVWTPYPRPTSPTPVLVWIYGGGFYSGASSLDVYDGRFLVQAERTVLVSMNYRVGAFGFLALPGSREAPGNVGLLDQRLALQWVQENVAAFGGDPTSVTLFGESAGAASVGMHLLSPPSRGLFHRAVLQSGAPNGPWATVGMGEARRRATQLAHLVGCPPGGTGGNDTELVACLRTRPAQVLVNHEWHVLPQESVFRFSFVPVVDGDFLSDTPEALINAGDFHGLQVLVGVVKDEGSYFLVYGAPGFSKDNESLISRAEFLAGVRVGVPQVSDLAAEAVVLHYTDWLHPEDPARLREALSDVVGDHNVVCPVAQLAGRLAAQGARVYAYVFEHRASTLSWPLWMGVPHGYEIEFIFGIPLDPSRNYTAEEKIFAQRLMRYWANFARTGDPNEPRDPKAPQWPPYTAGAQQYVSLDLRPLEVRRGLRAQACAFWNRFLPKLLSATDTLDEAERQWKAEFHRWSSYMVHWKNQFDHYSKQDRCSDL
Description: (§2) AChE and BChE were used as representative enzymes to determine the anticholinesterase effect of isolated compounds using Ellman’s assay with slight modifications. Sample stocks (5 mg/5 mL in methanol) were prepared and a range of serial dilutions (125, 250, 500, 1000 μg/mL) was made from each of them. Phosphate buffer (6.8 pH) was used for making the enzyme and substrate solutions.

[4] = target: T2, butyrylcholinesterase (BChE) (Homo sapiens, UniProt P06276); assay: Butyrylcholinesterase inhibition, Ellman's assay; type: biochemical; details: for inhibition at 125 µg/mL / inhibition at 250 µg/mL / inhibition at 500 µg/mL / inhibition at 1000 µg/mL: read-out: Percent BChE (Mean ± SEM), %inhibition
T2 sequence (P06276 29-602, species assumed): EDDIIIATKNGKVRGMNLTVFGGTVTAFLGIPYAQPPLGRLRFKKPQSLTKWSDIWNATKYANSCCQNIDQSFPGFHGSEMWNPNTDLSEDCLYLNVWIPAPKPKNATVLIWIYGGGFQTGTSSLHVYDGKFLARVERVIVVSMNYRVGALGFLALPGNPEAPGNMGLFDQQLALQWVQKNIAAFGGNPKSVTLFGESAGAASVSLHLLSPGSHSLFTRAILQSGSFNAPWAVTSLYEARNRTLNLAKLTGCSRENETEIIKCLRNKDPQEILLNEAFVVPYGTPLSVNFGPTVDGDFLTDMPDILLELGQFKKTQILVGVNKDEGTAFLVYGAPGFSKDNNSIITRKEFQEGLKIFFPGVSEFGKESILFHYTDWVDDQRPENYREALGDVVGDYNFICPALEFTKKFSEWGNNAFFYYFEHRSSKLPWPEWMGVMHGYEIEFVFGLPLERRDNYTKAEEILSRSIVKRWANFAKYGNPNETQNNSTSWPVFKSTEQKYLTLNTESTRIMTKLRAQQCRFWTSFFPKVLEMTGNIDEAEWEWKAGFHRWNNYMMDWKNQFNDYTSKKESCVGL
Description: as §2

[5] = target: α-amylase; assay: α-Amylase inhibition assay (DNS method); type: biochemical; details: for Percent Inhibition of α-Amylase (Mean ± S.E.M): n = 3
Description: The degree of inhibition was assessed by quantifying maltose equivalents using a slightly modified dinitrosalicylic acid (DNS) method. From each of the sample dilutions, 1 mL was pre-incubated with 1 U/mL α-amylase for half an hour. After incubation, 1 mL of 1% of starch solution was added to the mixture and further incubated for 10 min. To stop the reaction, 1 mL DNS reagent was added to the reaction mixture and heated in a boiling water bath for 5 min. […] The absorbance was measured at 540 nm.

[6] = target: T1, acetylcholinesterase (AChE); assay: biochemical; details: read-out: Percent AChE (Mean ± SEM), %inhibition
[7] = target: T2, butyrylcholinesterase (BChE); assay: Butyrylcholinesterase inhibition, Ellman's assay; type: biochemical; details: read-out: Percent BChE (Mean ± SEM), %inhibition
[8] = read-out: AChE IC50 (converted)

SMILES	DPPH IC50 [1]	DPPH Percent Inhibition (Mean ± S.E.M) ([1]; 62.5 μg/mL)	DPPH Percent Inhibition (Mean ± S.E.M) ([1]; 250 μg/mL)	DPPH Percent Inhibition (Mean ± S.E.M) ([1]; 500 μg/mL)	DPPH Percent Inhibition (Mean ± S.E.M) ([1]; 1000 μg/mL)	ABTS IC50 [2]	ABTS Percent Inhibition (Mean ± S.E.M) ([2]; 62.5 μg/mL)	ABTS Percent Inhibition (Mean ± S.E.M) ([2]; 125 μg/mL)	ABTS Percent Inhibition (Mean ± S.E.M) ([2]; 250 μg/mL)	ABTS Percent Inhibition (Mean ± S.E.M) ([2]; 500 μg/mL)	ABTS Percent Inhibition (Mean ± S.E.M) ([2]; 1000 μg/mL)	IC50 [4]	inhibition at 125 µg/mL [4]	inhibition at 500 µg/mL [4]	α-Amylase IC50 [5]	Percent Inhibition of α-Amylase (Mean ± S.E.M) ([5]; 62.5 μg/mL)	Percent Inhibition of α-Amylase (Mean ± S.E.M) ([5]; 125 μg/mL)	Percent Inhibition of α-Amylase (Mean ± S.E.M) ([5]; 250 μg/mL)	Percent Inhibition of α-Amylase (Mean ± S.E.M) ([5]; 500 μg/mL)	DPPH Percent Inhibition (Mean ± S.E.M) ([1]; 125 μg/mL)	further results
CCCCCCCCCCCCCCCCCCCCCC(=O)O [Compound X, docosanoic acid]	95 µg/mL	46.17 ± 3.01%	60.61 ± 0.71%	69.19 ± 2.27%	78.81 ± 2.10%	95 µg/mL	46.01 ± 1.06%	54.13 ± 0.31%	60.11 ± 1.90%	68.99 ± 1.88%	78.03 ± 1.51%	382 µM	49.13 ± 0.31%	62 ± 0.78%	125 µg/mL	40.01 ± 2.06 ^ns %	50.11 ± 1.31 %	59.11 ± 2.13 %	65.19 ± 1.28 %		IC50 [3]: 382 µM; inhibition at 125 µg/mL [3]: 49.3 ± 2.32%; inhibition at 250 µg/mL [3]: 56.1 ± 1.51%; inhibition at 500 µg/mL [3]: 62.5 ± 1.37%; inhibition at 1000 µg/mL [3]: 70.1 ± 1.4%; inhibition at 250 µg/mL [4]: 55.5 ± 0.8%; inhibition at 1000 µg/mL [4]: 69.1 ± 2.01%; inhibition at 62.5 µg/mL [6]: 43.2 ± 3.01%; inhibition at 62.5 µg/mL [7]: 43 ± 1.06%
COc1ccc2c3c1O[C@H]1C[C@@H](O)C=C[C@@]31CCN(C)C2 [Galanthamine, reference compound]													64.4 ± 1.85%	85.1 ± 2.06%							inhibition at 1000 µg/mL [4]: 93.89 ± 0.81%
CC(C)C(C(=O)O)c1ccc(C(C(=O)O)C(C)C)cc1 (stereo not drawn) [Compound XII]	60 µg/mL	51.02 ± 1.30%	71.13 ± 1.31%	78.17 ± 1.04%	86.54 ±2.16%	62 µg/mL	50.51 ± 1.19%	60.20 ± 3.05%	71.44 ± 2.11%	77.15 ± 1.06%	86.07 ± 1.43%	216 µM			92 µg/mL	47.51 ± 1.19 %	56.10 ± 2.05 %	66.94 ± 1.11 %	74.25 ± 1.06 %	61.75 ± 1.78%	inhibition at 125 µg/mL ([3]; 125 μg/mL, n = 3): 61.2 ± 1.71%; inhibition at 250 µg/mL ([3]; 250 μg/mL, n = 3): 69.3 ± 1.38%; inhibition at 500 µg/mL ([3]; 500 μg/mL, n = 3): 76.2 ± 1.01%; inhibition at 1000 µg/mL ([3]; 1000 μg/mL, n = 3): 84.4 ± 1.36%; IC50 [3, 8]: 198 µM; inhibition at 125 µg/mL ([4]; 125 μg/mL, n = 3): 64.4 ± 1.85%; inhibition at 250 µg/mL ([4]; 250 μg/mL, n = 3): 77.1 ± 2.26%; inhibition at 500 µg/mL ([4]; 500 μg/mL, n = 3): 85.1 ± 2.06%; inhibition at 1000 µg/mL ([4]; 1000 μg/mL, n = 3): 93.89 ± 0.81%; Percent Inhibition of α-Amylase (Mean ± S.E.M) ([5]; 1000 μg/mL): 79.07 ± 1.43 %; inhibition at 62.5 µg/mL ([6]; 62.5 μg/mL, n = 3): 52.5 ± 1.47%; inhibition at 62.5 µg/mL ([7]; 62.5 μg/mL, n = 3): 50.4 ± 1.11%
O=C1O[C@H]([C@@H](O)CO)C(O)=C1O [Ascorbic Acid, reference compound]	35 µg/mL	55.12 ± 1.30%	78.63 ± 1.48%	87.87 ± 1.64%	94.14 ± 1.76%	35 µg/mL	55.41 ± 1.39%	63.30 ± 2.75%	75.14 ± 3.16%	83.45 ± 2.26%	93.07 ± 0.53%									65.35 ± 1.08%	
O=COC(O)O [Compound XI, methanetriol mano formate]	95 µg/mL	46.22 ± 0.60%	62.13 ± 1.08%	71.17 ± 2.14%	80.41 ± 2.16%	95 µg/mL	46.23 ± 1.49%	54.30 ± 1.15%	61.04 ± 2.38%	70.15 ± 1.16%	79.17 ± 0.53%	815 µM			98 µg/mL	46.98 ± 2.49 %	54.13 ± 2.17 %	63.21 ± 1.69 %	70.91 ± 2.11 %	54.15 ± 1.28%	inhibition at 250 µg/mL ([3]; 250 μg/mL, n = 3): 64.5 ± 3.04%; inhibition at 500 µg/mL ([3]; 500 μg/mL, n = 3): 71.2 ± 2.42%; inhibition at 1000 µg/mL ([3]; 1000 μg/mL, n = 3): 81.4 ± 2.51%; IC50 [3, 8]: 815 µM; inhibition at 125 µg/mL ([4]; 125 μg/mL, n = 3): 57.1 ± 1.31%; inhibition at 250 µg/mL ([4]; 250 μg/mL, n = 3): 63.7 ± 2.24%; inhibition at 500 µg/mL ([4]; 500 μg/mL, n = 3): 71.2 ± 1.31%; inhibition at 1000 µg/mL ([4]; 1000 μg/mL, n = 3): 81.3 ± 1.41%; Percent Inhibition of α-Amylase (Mean ± S.E.M) ([5]; 1000 μg/mL): 81.90 ± 0.73 %; inhibition at 62.5 µg/mL ([6]; 62.5 μg/mL, n = 3): 48.2 ± 3.34%; inhibition at 62.5 µg/mL ([7]; 62.5 μg/mL, n = 3): 48 ± 2.06%
